# Test results reported in PubChem BioAssay AID248 (DTP/NCI, 2004).
# Several values for one entry are separate records, joined by “and”; a condition that tells them apart may be missing. Equal entries are not always repeated. Inconclusive results and toxic doses are left out.
# Test system: L1210 leukemia ip in BDF1 mice, survival T/C
# Test: NCI In Vivo Anticancer Drug Screen. Data for tumor model L1210 Leukemia (intraperitoneal) in B6D2F1 (BDF1) mice
# Details: higher = longer survival
# How it was run: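 Tumor cells were implanted, animals were treated, and survival was followed. The result divides the treated measurement by the vehicle-control measurement.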
compound,measurement,setting,value
O=NN(CCCl)C(=O)NC1CCCCC1,T/C,"endpoint: mean survival time, dose: 9.0 mg/kg/injection, schedule: Q01DX003 (ip), vehicle: carboxymethylcellulose (CMC)",154 % of control
same,T/C,"endpoint: mean survival time, dose: 9.3 mg/kg/injection, schedule: Q## X004 (ip), vehicle: carboxymethylcellulose (CMC)",112 % of control
same,T/C,"endpoint: mean survival time, dose: 9.37 mg/kg/injection, schedule: Q01DX001 (ip), vehicle: saline",102 % of control
same,T/C,"endpoint: mean survival time, dose: 10.0 mg/kg/injection, schedule: Q01DX001 (ip), vehicle: carboxymethylcellulose (CMC)",116 % of control
same,T/C,"endpoint: mean survival time, dose: 10.0 mg/kg/injection, schedule: Q01DX001 (iv), vehicle: clinical formulation",160 % of control
same,T/C,"endpoint: mean survival time, dose: 10.0 mg/kg/injection, schedule: Q## X032 (ip), vehicle: carboxymethylcellulose (CMC)",122 % of control
same,T/C,"endpoint: mean survival time, dose: 12.5 mg/kg/injection, schedule: Q01DX009 (ip), vehicle: Klucel (hydroxypropylcellulose) (HPC)",172 % of control
same,T/C,"endpoint: mean survival time, dose: 12.5 mg/kg/injection, schedule: Q01DX Z (ip), vehicle: carboxymethylcellulose (CMC)",156 % of control
same,T/C,"endpoint: mean survival time, dose: 12.5 mg/kg/injection, schedule: Q03HX024 (ip), vehicle: carboxymethylcellulose (CMC)",154 % of control
same,T/C,"endpoint: mean survival time, dose: 15.0 mg/kg/injection, schedule: Q01DX001 (iv), vehicle: Klucel (hydroxypropylcellulose) (HPC)",152 % of control
same,T/C,"endpoint: mean survival time, dose: 16.0 mg/kg/injection, schedule: Q01DX009 (ip), vehicle: saline with Tween-80",161 % of control
same,T/C,"endpoint: mean survival time, dose: 16.0 mg/kg/injection, schedule: Q01DX Z (ip), vehicle: carboxymethylcellulose (CMC)",158 % of control
same,T/C,"endpoint: mean survival time, dose: 16.0 mg/kg/injection, schedule: Q03HX003 (oral), vehicle: saline",161 % of control
same,T/C,"endpoint: mean survival time, dose: 18.0 mg/kg/injection, schedule: Q01DX001 (ip), vehicle: carboxymethylcellulose (CMC)",159 % of control
same,T/C,"endpoint: mean survival time, dose: 18.5 mg/kg/injection, schedule: Q01DX001 (ip), vehicle: carboxymethylcellulose (CMC)",153 % of control
same,T/C,"endpoint: mean survival time, dose: 18.75 mg/kg/injection, schedule: Q01DX001 (ip), vehicle: saline",109 % of control
same,T/C,"endpoint: mean survival time, dose: 20.0 mg/kg/injection, schedule: Q01DX001 (ip), vehicle: carboxymethylcellulose (CMC)",160 % of control
same,T/C,"endpoint: mean survival time, dose: 20.0 mg/kg/injection, schedule: Q04DX004 (ip), vehicle: Klucel (hydroxypropylcellulose) (HPC)",162 % of control
same,T/C,"endpoint: mean survival time, dose: 22.0 mg/kg/injection, schedule: Q01DX001 (ip), vehicle: carboxymethylcellulose (CMC)",156 % of control
same,T/C,"endpoint: mean survival time, dose: 22.0 mg/kg/injection, schedule: Q01DX001 (iv), vehicle: saline",165 % of control
same,T/C,"endpoint: mean survival time, dose: 25.0 mg/kg/injection, schedule: Q03HX008 (ip), vehicle: carboxymethylcellulose (CMC)",112 % of control
same,T/C,"endpoint: mean survival time, dose: 30.0 mg/kg/injection, schedule: Q01DX001 (ip), vehicle: saline",156 % of control
same,T/C,"endpoint: mean survival time, dose: 32.0 mg/kg/injection, schedule: Q01DX005 (oral), vehicle: saline",121 % of control
same,T/C,"endpoint: mean survival time, dose: 50.0 mg/kg/injection, schedule: Q01DX Z (ip), vehicle: carboxymethylcellulose (CMC)",118 % of control
same,T/C,"endpoint: mean survival time, dose: 50.0 mg/kg/injection, schedule: Q07DX Z (ip), vehicle: carboxymethylcellulose (CMC)",158 % of control
same,T/C,"endpoint: mean survival time, dose: 50.0 mg/kg/injection, schedule: Q## X004 (ip), vehicle: carboxymethylcellulose (CMC)",160 % of control
same,T/C,"endpoint: mean survival time, dose: 50.0 mg/kg/injection, schedule: Q## X015 (ip), vehicle: carboxymethylcellulose (CMC)",171 % of control
same,T/C,"endpoint: mean survival time, dose: 62.0 mg/kg/injection, schedule: Q01DX Z (ip), vehicle: carboxymethylcellulose (CMC)",92 % of control
same,T/C,"endpoint: mean survival time, dose: 75.0 mg/kg/injection, schedule: Q## X008 (ip), vehicle: carboxymethylcellulose (CMC)",163 % of control
same,T/C,"endpoint: mean survival time, dose: 97.0 mg/kg/injection, schedule: Q01DX001 (oral), vehicle: carboxymethylcellulose (CMC)",95 % of control
same,T/C,"endpoint: mean survival time, dose: 100.0 mg/kg/injection, schedule: Q01DX001 (ip), vehicle: carboxymethylcellulose (CMC)",164 % of control
same,T/C,"endpoint: mean survival time, dose: 100.0 mg/kg/injection, schedule: Q01DX001 (ip), vehicle: saline",104 % of control
same,T/C,"endpoint: mean survival time, dose: 100.0 mg/kg/injection, schedule: Q01DX001 (oral), vehicle: saline",95 % of control
same,T/C,"endpoint: mean survival time, dose: 112.0 mg/kg/injection, schedule: Q01DX001 (ip), vehicle: carboxymethylcellulose (CMC)",164 % of control
same,T/C,"endpoint: mean survival time, dose: 112.0 mg/kg/injection, schedule: Q## X001 (ip), vehicle: carboxymethylcellulose (CMC)",152 % of control
same,T/C,"endpoint: mean survival time, dose: 112.0 mg/kg/injection, schedule: Q## X008 (ip), vehicle: carboxymethylcellulose (CMC)",121 % of control
same,T/C,"endpoint: mean survival time, dose: 112.0 mg/kg/injection, schedule: Q## X015 (ip), vehicle: carboxymethylcellulose (CMC)",119 % of control
same,T/C,"endpoint: mean survival time, dose: 200.0 mg/kg/injection, schedule: Q01DX001 (ip), vehicle: Klucel (hydroxypropylcellulose) (HPC)",110 % of control
same,T/C,"endpoint: mean survival time, dose: 200.0 mg/kg/injection, schedule: Q01DX001 (ip), vehicle: carboxymethylcellulose (CMC)",104 % of control
same,T/C,"endpoint: mean survival time, dose: 200.0 mg/kg/injection, schedule: Q01DX001 (oral), vehicle: carboxymethylcellulose (CMC)",159 % of control
same,T/C,"endpoint: mean survival time, dose: 400.0 mg/kg/injection, schedule: Q01DX001 (ip), vehicle: carboxymethylcellulose (CMC)",93 % of control
same,T/C,"endpoint: median survival time, dose: 12.5 mg/kg/injection, schedule: Q01DX001 (ip), vehicle: saline with Tween-80",99 % of control and 100 % of control
same,T/C,"endpoint: median survival time, dose: 25.0 mg/kg/injection, schedule: Q01DX001 (ip), vehicle: saline with Tween-80",100 % of control and 101 % of control
same,T/C,"endpoint: median survival time, dose: 25.0 mg/kg/injection, schedule: Q01DX001 (oral), vehicle: Klucel (hydroxypropylcellulose) (HPC)",158 % of control
same,T/C,"endpoint: median survival time, dose: 50.0 mg/kg/injection, schedule: Q01DX001 (ip), vehicle: saline with Tween-80",112 % of control and 113 % of control
same,T/C,"endpoint: median survival time, dose: 200.0 mg/kg/injection, schedule: Q01DX001 (ip), vehicle: saline with Tween-80",112 % of control and 113 % of control
